Where two headings read alike, the source gives them in different places.

The values that follow come from patent US8680159B2, “Bradykinin 1 receptor modulating compounds” (Gruenenthal GmbH, priority 2010, dated 2014).

Assay [1] concerns the target T1, human B1R receptor (CHO K1 cells stably transfected with the human B1R gene) (Homo sapiens, UniProt P46663).
T1 construct: expressed in transfected cells; host or cells: CHO K1 cells (Chinese hamster ovary), stably transfected
T1 sequence (P46663 1-353): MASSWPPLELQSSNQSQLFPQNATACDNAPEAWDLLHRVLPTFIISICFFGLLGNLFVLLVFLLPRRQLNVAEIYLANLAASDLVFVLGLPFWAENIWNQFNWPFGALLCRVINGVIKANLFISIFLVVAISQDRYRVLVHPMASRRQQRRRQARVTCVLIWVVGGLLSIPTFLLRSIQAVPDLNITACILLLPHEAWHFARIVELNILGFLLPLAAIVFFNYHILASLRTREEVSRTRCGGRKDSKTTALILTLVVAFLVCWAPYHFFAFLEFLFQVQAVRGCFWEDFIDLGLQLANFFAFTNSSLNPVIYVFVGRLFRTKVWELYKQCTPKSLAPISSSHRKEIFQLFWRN
As to the kind of experiment: Functional study on the bradykinin receptor 1 (B1R), Ca2+ fluorescence (Fluo-4) FLIPR/Novostar assay, hB1R cells. It counts as cell-based. An outline of the steps: (§1)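 Test compounds (10 μM) were added first and the Ca2+ rise was scored as % activation against Lys-Des-Arg9-bradykinin (≥50 nM, human) or Des-Arg9-bradykinin (≥1 μM, rat). After 6-20 min, the matching agonist was given at its EC80, and % inhibition relative to maximal achievable inhibition was calculated.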

The target in assay [2] is T2, B1R receptor of the rat (CHO K1 cells stably transfected with the B1R gene of the rat) (Rattus norvegicus, UniProt P97583).
T2 construct: expressed in transfected cells; host or cells: CHO K1 cells (Chinese hamster ovary), stably transfected
T2 sequence (P97583 1-337): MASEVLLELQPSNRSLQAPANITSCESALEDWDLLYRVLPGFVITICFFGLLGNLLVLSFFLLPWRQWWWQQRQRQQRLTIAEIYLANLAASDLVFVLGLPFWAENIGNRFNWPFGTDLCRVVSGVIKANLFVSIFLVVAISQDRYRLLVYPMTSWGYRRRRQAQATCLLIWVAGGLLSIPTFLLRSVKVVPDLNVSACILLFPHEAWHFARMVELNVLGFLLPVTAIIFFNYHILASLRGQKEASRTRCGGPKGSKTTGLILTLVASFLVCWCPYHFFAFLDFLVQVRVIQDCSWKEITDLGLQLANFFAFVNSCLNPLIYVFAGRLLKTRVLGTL
Nature of the assay: Functional study on the bradykinin receptor 1 (B1R), Ca2+ fluorescence (Fluo-4) FLIPR/Novostar assay, rB1R cells. It counts as cell-based. The conditions noted are these: for inhibition at 10 µM: CHO-K1, 10 μM. An outline of the steps: as §1

Setting [3] is: CHO-K1, read-out: % Inhibition (h-B1R) at 10 μM.
[4] abbreviates: read-out: % Inhibition (r-B1R) at 10 μM.
Where [5] appears, read: CHO-K1, read-out: % inhibition (human B1R) at 10 μM.
[6] abbreviates: read-out: % inhibition (rat B1R) at 10 μM.

As for `CN(C(=O)c1ccc2c(c1)CCC2NC(=O)C1CCCCC1)C1CCN(c2ccncc2)CC1` (stereo not drawn) [CC_H-58, 1-(Cyclohexanecarbonylamino)-N-methyl-N-(1-pyridin-4-yl-piperidin-4-yl)-2,3-dihydro-1H-indene-5-carboxylic acid amide], the figures for the inhibition at 10 µM in assay [1] (setting [3]) and in assay [2] (setting [4]) were 96% and 77%, respectively.

As for `COc1ccc(N2CCC(N(C)C(=O)c3ccc4c(c3)[C@H](NC(=O)c3ccccc3Cl)CC4)CC2)cn1` [Example H-101, (3R)-3-[(2-Chloro-benzoyl)amino]-N-[1-(6-methoxy-pyridin-3-yl)-piperidin-4-yl]-N-methyl-2,3-dihydro-1H-indene-5-carboxylic acid amide], the inhibition (commonly the relative decrease from the control value, in per cent) at 10 µM in assay [1] (setting [5]) turned out to be 13%; in assay [2] (setting [6]) it was 95%.

Turning to `CN(C(=O)c1ccc2c(c1)C(N(C)C(=O)CCC1CCCC1)CC2)C1CCN(c2ccncc2)CC1` (stereo not drawn) [CC_H-70, 3-(3-Cyclopentyl-propanoyl-methyl-amino)-N-methyl-N-(1-pyridin-4-yl-piperidin-4-yl)-2,3-dihydro-1H-indene-5-carboxylic acid amide], the values for the inhibition at 10 µM in assay [1] (setting [3]) and in assay [2] (setting [4]) were 100% and 103%, respectively.

As to `Cc1cc(N2CCC(N(C)C(=O)c3ccc4c(c3)[C@H](NC(=O)c3cc(F)ccc3Cl)CC4)CC2)nc(C)n1` [Example H-133, (3R)-3-[(2-Chloro-5-fluoro-benzoyl)amino]-N-[1-(2,6-dimethyl-pyrimidin-4-yl)-piperidin-4-yl]-N-methyl-2,3-dihydro-1H-indene-5-carboxylic acid amide], the values for the inhibition at 10 µM in assay [1] (setting [5]) and in assay [2] (setting [6]) were 99% and 100%, respectively.

Regarding `CN(C)c1cc(C2CCC(N(C)C(=O)c3ccc4c(c3)[C@H](NC(=O)c3ccccc3Cl)CC4)CC2)ccn1` (stereo partly drawn) [Example H-184, (3R)-3-[(2-Chloro-benzoyl)amino]-N-[4-(2-dimethylamino-pyridin-4-yl)-cyclohexyl]-N-methyl-2,3-dihydro-1H-indene-5-carboxylic acid amide], the inhibition at 10 µM was 72% in assay [1] (setting [5]) and 105% in assay [2] (setting [6]).

Regarding `CN(C(=O)c1ccc2c(c1)C(NC(=O)c1cccc(Cl)c1Cl)CC2(C)C)C1CCN(c2ccncc2)CC1` (stereo not drawn) [CC_H-19, 3-[(2,3-Dichloro-benzoyl)amino]-N,1,1-trimethyl-N-(1-pyridin-4-yl-piperidin-4-yl)-2,3-dihydro-indene-5-carboxylic acid amide], the inhibition at 10 µM in assay [1] (setting [3]) and in assay [2] (setting [4]) was 100% throughout.

In the case of `CN(C(=O)c1ccc2c(c1)C(NC(=O)c1cc(F)ccc1Cl)CC2(C)C)C1CCN(c2ccncc2)CC1` (stereo not drawn) [CC_H-21, 3-[(2-Chloro-5-fluoro-benzoyl)amino]-N,1,1-trimethyl-N-(1-pyridin-4-yl-piperidin-4-yl)-2,3-dihydro-indene-5-carboxylic acid amide], in assay [1] (setting [3]), the inhibition at 10 µM turned out to be 99%. The “% Inhibition (r-B1R) at 10 μM” value in assay [2] (10 μM) came to 104%.

As to `CN(C(=O)c1ccc2c(c1)CC[C@H]2N1Cc2cccc(Cl)c2C1=O)C1CCN(c2ccccn2)CC1` [Example H-26, (1R)-1-(4-Chloro-3-oxo-1,2-dihydro-isoindol-2-yl)-N-methyl-N-(1-pyridin-2-yl-piperidin-4-yl)-2,3-dihydro-1H-indene-5-carboxylic acid amide], the inhibition at 10 µM in assay [1] (setting [5]) worked out at 52%; in assay [2] (setting [6]), 0%.

Consider `CC(C)N(C(=O)c1ccccc1Cl)[C@@H]1CCc2cc(C(=O)N(C)C3CCN(c4ccncc4)CC3)c(F)cc21` [Example H-158, (1R)-1-[(2-Chloro-benzoyl)isopropyl-amino]-6-fluoro-N-methyl-N-(1-pyridin-4-yl-piperidin-4-yl)-2,3-dihydro-1H-indene-5-carboxylic acid amide], for which the inhibition at 10 µM in assay [1] (setting [5]) came out at 23%; in assay [2] (setting [6]), 61%.
